Columns and labels:
Botrytis cinerea = test: Botrytis test (beans)/protective; assay type: in vivo; settings: protective, 500 ppm active compound, lesion size 3 days after inoculation
Protocol: Botrytis Test (Beans)/Protective Solvent: 4.7 parts by weight of acetone Emulsifier: 0.3 part by weight of alkylaryl polyglycol ether To produce a suitable preparation of active compound, 1 part by weight of active compound is mixed with the stated amounts of solvent and emulsifier, and the concentrate is diluted with water to the desired concentration. To test for protective activity, young plants are sprayed with the preparation of active compound. After the spray coating has dried on, 2 small pieces of agar covered with Botrytis cinerea are placed on each leaf. The inoculated plants are then placed in a darkened humid chamber at 20° C. 3 days after the inoculation, the size of the lesions on the leaves is evaluated.

[1] = test system: Pseudocercosporella herpotrichoides; test: Pseudocercosporella herpotrichoides test (wheat)/protective; assay type: in vivo; settings: protective, application rate 250 g/ha, evaluation 21 days after inoculation
Protocol: Pseudocercosporella herpotrichoides Test (Wheat)/Protective Solvent: 10 parts by weight of N-methyl-pyrrolidone Emulsifier: 0.6 part by weight of alkylaryl polyglycol ether To produce a suitable preparation of active compound, 1 part by weight of active compound is mixed with the stated amounts of solvent and emulsifier, and the concentrate is diluted with water to the desired concentration. To test for protective activity, young plants are sprayed with the preparation of active compound at the rate of application shown. After the spray coating has dried on, the stem base of the plants is inoculated with spores of Pseudocercosporella herpotrichoides. […] Evaluation is carried out 21 days after the inoculation.

Sphaerotheca fuliginea = test: Sphaerotheca test (cucumber)/protective; assay type: in vivo; settings: protective, 100 ppm active substance, evaluation 10 days after inoculation
Protocol: Sphaerotheca Test (Cucumber)/Protective Solvent: 4.7 parts by weight of acetone Emulsifier: 0.3 part by weight of alkylaryl polyglycol ether To produce a suitable preparation of active compound, 1 part by weight of active compound is mixed with the stated amounts of solvent and emulsifier, and the concentrate is diluted with water to the desired concentration. To test for protective activity, young plants are sprayed with the preparation of active compound. After the spray coating has dried on, the plants are dusted with conidia of the fungus Sphaerotheca fuliginea. The plants are then placed in a greenhouse at 23 to 24° C. and at a relative atmospheric humidity of about 75%. Evaluation is carried out 10 days after the inoculation.

Pyricularia oryzae = assay type: in vivo; settings: rice, protective, active compound concentration 0.05%, evaluation 4 days after inoculation
[2] = test system: larvae of the green rice leafhopper (Nephotettix cincticeps); test: Nephotettix test; assay type: in vivo; settings: rice seedlings dipped, active compound concentration 0.001%, after 7 days
Protocol: Nephotettix Test Solvent: 7 parts by weight of dimethylformamide Emulsifier: 1 part by weight of alkylaryl polyglycol ether To produce a suitable preparation of active compound, 1 part by weight of active compound is mixed with the stated amount of solvent and the stated amount of emulsifier, and the concentrate is diluted with water to the desired concentration. Rice seedlings (Oryza sativa) are treated by being dipped into the preparation of the active compound of the desired concentration and populated with larvae of the green rice leafhopper (Nephotettix cincticeps) while the seedlings are still moist. After the specified period of time, the destruction in % is determined. 100% means that all the leafhoppers have been killed; 0% means that none of the leafhoppers have been killed.

[3] = test system: caterpillars of the fall armyworm Spodoptera frugiperda; test: Spodoptera test; assay type: in vivo; settings: cabbage leaves dipped, concentration 0.1%, after 7 days
Protocol: Spodoptera Test Solvent: 7 parts by […]: 1 part by weight of alkylaryl polyglycol ether To produce a suitable preparation of active compound, 1 part by weight of active compound is mixed with the stated amount of solvent and the stated amount of emulsifier, and the concentrate is diluted with water to the desired concentration. Cabbage leaves (Brassica oleracea) are treated by being dipped into the preparation of the active compound of the desired concentration and are populated with caterpillars of the fall armyworm Spodoptera frugiperda while the leaves are still moist. After the specified period of time, the activity in % is determined. 100% means that all the caterpillars have been killed; 0% means that none of the caterpillars have been killed.

[4] = test system: mustard beetle larvae (Phaedon cochleariae); test: Phaedon larvae test; assay type: in vivo; settings: cabbage leaves dipped, active compound concentration 0.01%, after 7 days
Protocol: Phaedon Larvae Test Solvent: 7 parts by weight of dimethylformamide Emulsifier: 1 part by weight of alkylaryl polyglycol ether To produce a suitable preparation of active compound, 1 part by weight of active compound is mixed with the stated amount of solvent and the stated amount of emulsifier, and the concentrate is diluted with water to the desired concentration. Cabbage leaves (Brassica oleracea) are treated by being dipped into the preparation of the active compound of the desired concentration and are populated with mustard beetle larvae (Phaedon cochleariae) while the leaves are still moist. After the specified period of time, the destruction in % is determined. 100% means that all the beetle larvae have been killed; 0% means that none of the beetle larvae have been killed.

Compound: O=CNc1cccc(C(=O)Nc2ccc(-c3ccccc3)cc2)c1O [Example 2, 3-formamido-2-hydroxy-N-(4-phenylphenyl)-benzamide]
- melting point: 190 °C
- efficacy (Botrytis cinerea): 90%

Compound: CC(NC(=O)c1cccc(NC=O)c1O)c1ccc(F)cc1 (stereo not drawn) [Example 3, 3-formamido-2-hydroxy-N-[1-(4-fluorphenyl)-ethyl)-benzamide]
- efficacy (Botrytis cinerea): 90%

Compound: O=CNc1cccc(C(=O)Nc2ccc(Oc3ccc(Cl)cc3)c(Cl)c2)c1O [Example 4]
- efficacy (Botrytis cinerea): 90%

Compound: O=CNc1cccc(C(=O)Nc2ccc(Oc3cccc(C(F)(F)F)c3)cc2)c1O [Example 5]
- efficacy [1]: over 80%
- efficacy (Sphaerotheca fuliginea): over 80%
- efficacy (Pyricularia oryzae): over 80%
- efficacy (Botrytis cinerea): 90%

Compound: COc1cccc(C(C)NC(=O)c2cccc(NC=O)c2O)c1 (stereo not drawn) [Example 10]
- efficacy (Botrytis cinerea): 90%

Compound: CC(NC(=O)c1cccc(NC=O)c1O)c1ccc(Cl)cc1Cl (stereo not drawn) [Example 15]
- efficacy (Botrytis cinerea): 90%

Compound: CCc1ccc(C(C)NC(=O)c2cccc(NC=O)c2O)cc1 (stereo not drawn) [Example 16]
- efficacy (Botrytis cinerea): 90%

Compound: O=CNc1cccc(C(=O)NCc2ccc(F)cc2)c1O [Example 35]
- destruction [2]: 100%

Compound: O=CNc1cccc(C(=O)NCc2cccc(C(F)(F)F)c2)c1O [Example 39]
- destruction [2]: 100%

Compound: CCc1ccc(-c2ccc(CCNC(=O)c3cccc(NC=O)c3O)cc2)cc1 [Example 47]
- destruction rate [3]: 85%
- destruction [4]: 100%

Compound: CC(NC(=O)c1cccc(NC=O)c1O)C1CC=CCC1 (stereo not drawn) [Example 71]
- destruction [2]: 100%

Compound: CC(NC(=O)c1cccc([N+](=O)[O-])c1OCc1ccccc1)c1cccc(C(F)(F)F)c1 (stereo not drawn) [Example V-34]
- destruction [4]: 100%

Compound: O=C(Nc1ccc(-c2ccccc2)cc1)c1cccc([N+](=O)[O-])c1O [IV-a-1, 3-nitro-2-hydroxy-N-(4-phenyl-phenyl)-benzamide]
- melting point: 152 °C

From patent US6548549B1, “Acylaminosalicylic acid amides and their uses as pesticides” (Bayer Aktiengesellschaft, priority 1995, dated 2003)
